Source: US20230127046A1, “G9a INHIBITOR” (RIKEN, priority 2019, published 2023)
Where two headings read alike, the source gives them in different places.

Columns and labels:
[1] = molecular target: T1, recombinant human G9a protein (Homo sapiens, UniProt Q96KQ7); experiment: G9a inhibitory activity test (ALPHA); assay type: biochemical
T1 construct: purchased BPS Bioscience Inc. #51001
T1 sequence (Q96KQ7 785-1210 limits assumed): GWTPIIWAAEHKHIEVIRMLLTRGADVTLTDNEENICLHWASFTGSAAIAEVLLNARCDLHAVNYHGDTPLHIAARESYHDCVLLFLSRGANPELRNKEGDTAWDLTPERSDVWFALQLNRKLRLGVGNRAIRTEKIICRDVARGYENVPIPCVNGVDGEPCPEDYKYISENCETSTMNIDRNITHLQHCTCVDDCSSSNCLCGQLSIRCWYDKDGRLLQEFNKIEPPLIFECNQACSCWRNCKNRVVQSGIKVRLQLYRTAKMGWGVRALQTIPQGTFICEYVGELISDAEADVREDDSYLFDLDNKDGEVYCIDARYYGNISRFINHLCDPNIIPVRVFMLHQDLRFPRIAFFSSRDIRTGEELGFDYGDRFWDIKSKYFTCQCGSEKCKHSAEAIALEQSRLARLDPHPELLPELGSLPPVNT
Outline: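 Human G9a (0.05 to 0.1 nM) in Tris pH 9.0 buffer preincubated with compound 10 min, then biotinylated histone H3 (1-21) peptide and SAM mixed 1:1 from 500 nM and 150 μM solutions, 1 h at room temperature. H3K9me2 detected by AlphaLISA acceptor/streptavidin donor beads; IC50 from percent inhibition relative to no-compound and no-enzyme controls.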

[2] = system: intracellular histone H3K9 dimethylation level in human lung cancer cell line NCI-H460; experiment: Histone H3K9 dimethylation inhibitory activity test (Western blotting); assay type: cell-based; settings: NCI-H460 cells, 72 hours
Method: The inhibitory activity of each compound against G9a was evaluated by adding the compound to a human lung cancer cell line NCI-H460, and detecting change in intracellular histone H3K9 dimethylation level by Western blotting. The NCI-H460 cells were cultured in a DMEM medium (FUJIFILM Wako Pure Chemical Corp., 044-29765) containing 10% fetal bovine serum and 4 mM glutamine. The cultured cells were washed with PBS and then detached with trypsin/EDTA, and the cell suspension was adjusted to 2.5×10^4 cells/mL. The cell suspension was inoculated at 500 μL/well to a 24-well microplate (Thermo Fisher Scientific, Inc., 142475) and cultured overnight under conditions of 37° C. and 5% CO2. On the next day, the test compound (solution in DMSO) was added at 0.5 µL/well and reacted for 72 hours under conditions of 37° C. and 5% CO2. DMSO was added at 0.5 μL/well to control wells (final DMSO concentration: 0.1%). The medium was removed, and the cells were washed with PBS. Then, a 2×SDS-PAGE sample buffer (100 mM Tris-HCl (pH 6.8), 4% sodium lauryl sulfate, 2% 2-mercaptoethanol, 20% glycerol, 0.005% bromophenol blue) was added at 50 μL/well to prepare a sample. The recovered sample was heated at 95 to 100° C. for 10 minutes, and protein was separated by polyacrylamide gel electrophoresis (SDS-PAGE). Subsequently, the separated protein was transferred to a polyvinylidene fluoride (PVDF) membrane by semi-dry blotting. The PVDF membrane was dipped in 3% skimmed milk (dissolved in PBS containing 0.05% Tween 20 (PBST)), blocked at room temperature for 30 to 60 minutes, then dipped in an anti-dimethylated histone H3K9 antibody (Abcam plc, ab1220) diluted 1000-fold with 3% skimmed milk, and reacted overnight at 4° C. On the next day, the PVDF membrane was washed three times with PBST, then dipped in a HRP (horseradish peroxidase)-labeled anti-mouse IgG antibody diluted 10000-fold with skimmed milk, and reacted at room temperature for 1 hour. The PVDF membrane was washed three times with PBST, then dipped in chemiluminescent substrate solution Immobilon Western Chemiluminescent HRP Substrate (Merck Millipore, WBKLS0500), incubated at room temperature for 5 minutes, and photographed with Lumino Image Analyzer (GE Healthcare Japan Corp., ImageQuant LAS4000).
Then, the antibody was stripped from the PVDF membrane using re-probe reagent EzReprobe (ATTO Corp., WSE-7240), and trimethylated histone H3K9 and histone H3 were detected by the same procedures as above. An anti-trimethyl histone H3K9 antibody (39161, diluted 1000-fold) from Active Motif, Inc. and an anti-histone H3 antibody (ab1791, diluted 2000-fold) from Abcam plc were used in the detection. The band of each protein was quantified from the taken image using image processing software ImageJ (NIH). The ratios of dimethylated histone H3K9 and trimethylated histone H3K9 to the histone H3 protein were calculated with the numeric value of a compound-unsupplemented sample defined as 100%. A compound concentration at which the ratio of dimethylated histone H3K9 was 50% was calculated as a 50% inhibition concentration (IC50 value) using data analysis software Origin (LightStone Corp.).

[3] = system: human lung cancer cell line NCI-H460; experiment: Colony formation inhibition test; assay type: cell-based; settings: 288 h, NCI-H460 cells, culture for 12 days, read-out: Inhibitory activity (colony formation GI50)
Method: Each compound was evaluated for its colony formation inhibitory activity against a human lung cancer cell line NCI-H460. The NCI-H460 cells were cultured in a DMEM medium (FUJIFILM Wako Pure Chemical Corp., 044-29765) containing 10% fetal bovine serum and 4 mM glutamine. The cultured cells were washed with PBS, then detached with trypsin/EDTA, and adjusted to 2×10^3 cells/mL to prepare a cell suspension. The cell suspension was inoculated at 1 mL/well to a 12-well microplate (Corning Inc., 3513), and the test compound (DMSO solution) was added at 1 μL/well, followed by culture for 12 days under conditions of 37° C. and 5% CO2. DMSO was added at 1 μL/well to control wells with a final DMSO concentration set to 0.1%. The medium was discarded every day or every two days, and a fresh medium was added at 1 mL/well. The test compound or DMSO was added at 1 μL/well. The proportion of a colony of each well was measured using a high-speed cell imaging system (Tomy Digital Biology Co., Ltd., Celigo). The ratio of the colony in each compound-supplemented group was determined with the ratio of the colony formed in a test compound solution-unsupplemented well defined as 1. A compound concentration necessary for suppressing the rate of colony formation by 50% of the control (GI50) was calculated using data analysis software Origin (LightStone Crop.).

[4] = biotinylated histone H3 peptide (1-21), SAM, read-out: Inhibitory activity (G9a IC50 value)
[5] = read-out: Inhibitory activity (G9a IC50)

SMILES	IC50 [1, 5] [µM]	further results
Cc1c(C(=O)NC(CCC2CC2)C(=O)NC2CCN(C)CC2)[nH]c2c1C(=O)CC(C)(C)C2 (stereo not drawn) [Example 1-68]	–	IC50 [1, 4]: ≥ 0.2 µM; IC50 [2]: 0.05 to 0.5 µM; GI50 [3]: ≥ 1 µM
Cc1c(C(=O)NC(CCC2CC2)C(=O)Nc2ccc(C#N)cc2)[nH]c2c1C(=O)CC(C)(C)C2 (stereo not drawn) [Example 1-79]	–	IC50 [1, 4]: 0.05 to 0.2 µM; IC50 [2]: < 0.05 µM; GI50 [3]: < 0.5 µM
Cc1ccc(NC(=O)C(CCC2CC2)NC(=O)c2[nH]c3c(c2C)C(=O)CC(C)(C)C3)cn1 (stereo not drawn) [Example 1-80]	–	IC50 [1, 4]: ≥ 0.2 µM; IC50 [2]: 0.05 to 0.5 µM; GI50 [3]: 0.5 to 1 µM
Cc1c(C(=O)NC(CCC2CC2)C(=O)N2CCc3ccccc32)[nH]c2c1C(=O)CC(C)(C)C2 (stereo not drawn) [Example 1-81]	–	IC50 [1, 4]: 0.05 to 0.2 µM; IC50 [2]: 0.05 to 0.5 µM; GI50 [3]: < 0.5 µM
Cc1c(C(=O)NC(CCC2CC2)c2nc3c(CN4CCN(C)CC4)cccc3n2C)[nH]c2c1C(=O)CC(C)(C)C2 (stereo not drawn) [Example 31-6]	≥ 0.2	–
Cc1c(C(=O)NC(CCC2CC2)c2nc3c(CN(C)C4CCN(C)CC4)cccc3n2C)[nH]c2c1C(=O)CC(C)(C)C2 (stereo not drawn) [Example 31-7]	≥ 0.2	–
Cc1c(C(=O)NC(CCC2CC2)c2nc3cc(CN(C)C)ccc3n2C)[nH]c2c1C(=O)CC(C)(C)C2 (stereo not drawn) [Example 32, N-[3-cyclopropyl-1-[5-[(dimethylamino)methyl]-1-methylbenzoimidazol-2-yl]propyl]-3,6,6-trimethyl-4-oxo-5,7-dihydro-1H-indole-2-carboxamide]	≥ 0.2	–
Cc1c(C(=O)NC(CCC2CC2)c2nc3cc(CO)ccc3n2C)[nH]c2c1C(=O)CC(C)(C)C2 (stereo not drawn) [Example 33, N-[3-cyclopropyl-1-[5-(hydroxymethyl)-1-methylbenzoimidazol-2-yl]propyl]-3,6,6-trimethyl-4-oxo-5,7-dihydro-1H-indole-2-carboxamide]	≥ 0.2	–
CCCC[C@H](NC(=O)c1[nH]c2c(c1C)C(=O)CC(C)(C)C2)c1nc2ccc(OCCCN(C)C)cc2[nH]1 [Example 34-1, (S)-N-(1-(6-(3-(dimethylamino)propyloxy)-1H-benzo[d]imidazol-2-yl)pentyl)-3,6,6-trimethyl-4-oxo-4,5,6,7-tetrahydro-1H-indole-2-carboxamide]	≥ 0.2	–
CCCC[C@H](NC(=O)c1[nH]c2c(c1C)C(=O)CC(C)(C)C2)c1nc2ccc(OCCCN3CCOCC3)cc2[nH]1 [Example 34-3]	≥ 0.2	–
CCCC[C@H](NC(=O)c1[nH]c2c(c1C)C(=O)CC(C)(C)C2)c1nc2ccc(OC3CCN(C)CC3)cc2[nH]1 [Example 34-4]	≥ 0.2	–
CCCC[C@H](NC(=O)c1[nH]c2c(c1C)C(=O)CC(C)(C)C2)c1nc2ccc(OCCO)cc2[nH]1 [Example 36, (S)-N-(1-(6-(2-hydroxyethoxy)-1H-benzo[d]imidazol-2-yl)pentyl)-3,6,6-trimethyl-4-oxo-4,5,6,7-tetrahydro-1H-indole-2-carboxamide]	≥ 0.2	–
CCCC[C@H](NC(=O)c1[nH]c2c(c1C)C(=O)CC(C)(C)C2)c1nc2ccc(OCCN3CCCCC3)cc2[nH]1 [Example 37-1, (S)-3,6,6-trimethyl-4-oxo-N-(1-(6-(2-(piperidin-1-yl)ethoxy)-1H-benzo[d]imidazol-2-yl)pentyl)-4,5,6,7-tetrahydro-1H-indole-2-carboxamide]	≥ 0.2	–
CCCC[C@H](NC(=O)c1[nH]c2c(c1C)C(=O)CC(C)(C)C2)c1nc2ccc(OCCN3CCOCC3)cc2[nH]1 [Example 37-2]	≥ 0.2	–
CCCC[C@H](NC(=O)c1[nH]c2c(c1C)C(=O)CC(C)(C)C2)c1nc2ccc(OCCN3CCCC3)cc2[nH]1 [Example 37-3]	≥ 0.2	–
CCCC[C@H](NC(=O)c1[nH]c2c(c1C)C(=O)CC(C)(C)C2)c1nc2ccc(OCCN(C)C)cc2[nH]1 [Example 37-4]	≥ 0.2	–

Continued, in another order:

IC50 [1, 5] [µM]	SMILES	further results
< 0.05	COc1ccc(NC(=O)C(CCC2CC2)NC(=O)c2ccc(C3CCNCC3)cc2)cn1 (stereo not drawn) [Example 28, N-[4-cyclopropyl-1-[(6-methoxypyridine-3-yl)amino]-1-oxobutan-2-yl]-4-piperidin-4-ylbenzamide]	–
≥ 0.2	CCCCC(NC(=O)Cc1ccccc1N)C(=O)Nc1ccc(OC2CCN(C)CC2)nc1 (stereo not drawn) [Example 29]	–
0.05 to 0.2	Cc1c(C(=O)NC(CCC2CC2)c2nc3ccccc3n2C)[nH]c2c1C(=O)CC(C)(C)C2 (stereo not drawn) [Example 30-1, N-[3-cyclopropyl-1-(1-methylbenzoimidazol-2-yl)propyl]-3,6,6-trimethyl-4-oxo-5,7-dihydro-H-indole-2-carboxamide]	–
0.05 to 0.2	Cc1c(C(=O)NC(CCC2CC2)c2nc3cccc(C)c3n2C)[nH]c2c1C(=O)CC(C)(C)C2 (stereo not drawn) [Example 30-2]	–
≥ 0.2	COC(=O)c1ccc2c(c1)nc(C(CCC1CC1)NC(=O)c1[nH]c3c(c1C)C(=O)CC(C)(C)C3)n2C (stereo not drawn) [Example 30-3]	–
≥ 0.2	Cc1ccc2nc(C(CCC3CC3)NC(=O)c3[nH]c4c(c3C)C(=O)CC(C)(C)C4)n(C)c2c1 (stereo not drawn) [Example 30-4]	–
≥ 0.2	Cc1c(C(=O)NC(CCC2CC2)c2nc3cccc(CN(C)C)c3n2C)[nH]c2c1C(=O)CC(C)(C)C2 (stereo not drawn) [Example 31-1, N-[3-cyclopropyl-1-[7-[(dimethylamino)methyl]-1-methylbenzoimidazol-2-yl]propyl]-3,6,6-trimethyl-4-oxo-5,7-dihydro-1H-indole-2-carboxamide]	–
≥ 0.2	Cc1c(C(=O)NC(CCC2CC2)c2nc3ccc(CN(C)C)cc3n2C)[nH]c2c1C(=O)CC(C)(C)C2 (stereo not drawn) [Example 31-2]	–
≥ 0.2	Cc1c(C(=O)NC(CCC2CC2)c2nc3c(CN(C)C)cccc3n2C)[nH]c2c1C(=O)CC(C)(C)C2 (stereo not drawn) [Example 31-3]	–
≥ 0.2	CCN(CC)Cc1cccc2c1nc(C(CCC1CC1)NC(=O)c1[nH]c3c(c1C)C(=O)CC(C)(C)C3)n2C (stereo not drawn) [Example 31-4]	–
0.05 to 0.2	Cc1c(C(=O)NC(CCC2CC2)c2nc3c(CN4CCCC4)cccc3n2C)[nH]c2c1C(=O)CC(C)(C)C2 (stereo not drawn) [Example 31-5]	–
0.05 to 0.2	CCCC[C@H](NC(=O)c1[nH]c2c(c1C)C(=O)CC(C)(C)C2)c1nc2ccc(OCCCN3CCCCC3)cc2[nH]1 [Example 34-2]	–
